Read-outs that look alike come from different tables or passages of the source.
What was measured:
Abl(m) = biological target: T1, Abl(m) (Mus musculus, UniProt P00520); assay: Kinase panel; type: biochemical
T1 construct: purchased Millipore KinaseProfiler

Arg(m) = biological target: T2, Arg(m) (Mus musculus, UniProt Q4JIM5); assay: Kinase panel; type: biochemical
T2 construct: purchased Millipore KinaseProfiler

ErbB4(h) = biological target: T3, ErbB4(h) (Homo sapiens, UniProt Q15303); assay: Kinase panel; type: biochemical
T3 construct: purchased Millipore KinaseProfiler
T3 sequence (Q15303 26-1308): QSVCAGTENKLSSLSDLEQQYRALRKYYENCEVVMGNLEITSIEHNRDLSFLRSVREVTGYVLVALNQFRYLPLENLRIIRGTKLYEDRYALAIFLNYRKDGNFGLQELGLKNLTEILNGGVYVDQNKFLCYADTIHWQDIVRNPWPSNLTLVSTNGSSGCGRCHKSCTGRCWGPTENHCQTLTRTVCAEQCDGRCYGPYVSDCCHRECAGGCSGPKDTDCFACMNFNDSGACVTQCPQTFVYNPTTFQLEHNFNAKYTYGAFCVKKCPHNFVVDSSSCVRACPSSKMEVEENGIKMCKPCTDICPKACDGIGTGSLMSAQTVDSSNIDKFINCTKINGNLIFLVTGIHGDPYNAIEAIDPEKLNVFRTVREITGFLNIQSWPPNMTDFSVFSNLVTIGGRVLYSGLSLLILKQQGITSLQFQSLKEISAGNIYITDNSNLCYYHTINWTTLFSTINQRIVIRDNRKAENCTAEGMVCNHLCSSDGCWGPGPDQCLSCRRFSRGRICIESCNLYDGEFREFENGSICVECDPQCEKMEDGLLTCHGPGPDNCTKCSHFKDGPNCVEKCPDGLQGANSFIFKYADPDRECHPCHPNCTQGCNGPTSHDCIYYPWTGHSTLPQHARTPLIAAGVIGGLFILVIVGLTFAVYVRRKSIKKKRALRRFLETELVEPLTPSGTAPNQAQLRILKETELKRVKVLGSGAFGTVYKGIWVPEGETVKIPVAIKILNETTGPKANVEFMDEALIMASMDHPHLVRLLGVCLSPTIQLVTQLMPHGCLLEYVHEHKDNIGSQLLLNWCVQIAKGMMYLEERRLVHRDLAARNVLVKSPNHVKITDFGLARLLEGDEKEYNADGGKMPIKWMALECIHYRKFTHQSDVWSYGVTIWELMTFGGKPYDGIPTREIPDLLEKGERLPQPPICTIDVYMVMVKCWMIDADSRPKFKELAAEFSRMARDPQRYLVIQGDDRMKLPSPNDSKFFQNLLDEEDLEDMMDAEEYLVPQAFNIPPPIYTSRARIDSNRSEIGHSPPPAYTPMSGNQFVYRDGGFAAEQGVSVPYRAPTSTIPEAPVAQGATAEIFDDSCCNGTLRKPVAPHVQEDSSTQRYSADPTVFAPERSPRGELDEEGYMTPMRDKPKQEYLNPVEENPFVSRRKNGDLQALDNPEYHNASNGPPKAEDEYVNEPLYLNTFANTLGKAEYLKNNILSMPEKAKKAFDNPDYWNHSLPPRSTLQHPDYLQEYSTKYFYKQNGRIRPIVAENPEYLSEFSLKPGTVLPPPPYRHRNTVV

Flt3(D835Y)(h) = biological target: T4, Flt3(D835Y)(h) (Homo sapiens, UniProt P36888, D835Y); assay: Kinase panel; type: biochemical
T4 construct: purchased Millipore KinaseProfiler
T4 sequence (P36888 27-993 D835Y): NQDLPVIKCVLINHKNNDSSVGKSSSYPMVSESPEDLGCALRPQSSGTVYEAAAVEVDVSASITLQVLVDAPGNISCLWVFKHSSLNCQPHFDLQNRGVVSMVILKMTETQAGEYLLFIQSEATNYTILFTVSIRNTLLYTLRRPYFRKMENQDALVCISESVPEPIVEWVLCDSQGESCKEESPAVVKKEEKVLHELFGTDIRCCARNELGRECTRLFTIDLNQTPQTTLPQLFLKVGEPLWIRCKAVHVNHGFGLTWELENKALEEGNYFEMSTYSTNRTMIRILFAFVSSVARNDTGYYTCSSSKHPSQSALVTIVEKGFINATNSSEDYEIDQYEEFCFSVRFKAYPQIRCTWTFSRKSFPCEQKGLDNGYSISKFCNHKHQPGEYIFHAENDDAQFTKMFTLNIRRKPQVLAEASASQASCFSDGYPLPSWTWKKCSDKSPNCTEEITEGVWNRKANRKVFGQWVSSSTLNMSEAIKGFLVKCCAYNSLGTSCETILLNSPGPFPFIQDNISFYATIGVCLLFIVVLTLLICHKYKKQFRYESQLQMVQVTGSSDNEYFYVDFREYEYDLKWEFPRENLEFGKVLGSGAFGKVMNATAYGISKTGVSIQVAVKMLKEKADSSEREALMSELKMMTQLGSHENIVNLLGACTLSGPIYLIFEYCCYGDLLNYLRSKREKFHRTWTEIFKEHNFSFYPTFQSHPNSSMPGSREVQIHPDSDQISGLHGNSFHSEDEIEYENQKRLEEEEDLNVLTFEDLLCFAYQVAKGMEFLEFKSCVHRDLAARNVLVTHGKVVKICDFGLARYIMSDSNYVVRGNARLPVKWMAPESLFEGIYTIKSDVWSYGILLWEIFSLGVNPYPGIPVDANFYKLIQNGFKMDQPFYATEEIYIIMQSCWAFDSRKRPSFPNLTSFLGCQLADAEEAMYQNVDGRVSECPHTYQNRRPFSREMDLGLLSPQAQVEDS

MuSK(h) = biological target: T5, MuSK(h) (Homo sapiens, UniProt O15146); assay: Kinase panel; type: biochemical
T5 construct: purchased Millipore KinaseProfiler
T5 sequence (O15146 24-869): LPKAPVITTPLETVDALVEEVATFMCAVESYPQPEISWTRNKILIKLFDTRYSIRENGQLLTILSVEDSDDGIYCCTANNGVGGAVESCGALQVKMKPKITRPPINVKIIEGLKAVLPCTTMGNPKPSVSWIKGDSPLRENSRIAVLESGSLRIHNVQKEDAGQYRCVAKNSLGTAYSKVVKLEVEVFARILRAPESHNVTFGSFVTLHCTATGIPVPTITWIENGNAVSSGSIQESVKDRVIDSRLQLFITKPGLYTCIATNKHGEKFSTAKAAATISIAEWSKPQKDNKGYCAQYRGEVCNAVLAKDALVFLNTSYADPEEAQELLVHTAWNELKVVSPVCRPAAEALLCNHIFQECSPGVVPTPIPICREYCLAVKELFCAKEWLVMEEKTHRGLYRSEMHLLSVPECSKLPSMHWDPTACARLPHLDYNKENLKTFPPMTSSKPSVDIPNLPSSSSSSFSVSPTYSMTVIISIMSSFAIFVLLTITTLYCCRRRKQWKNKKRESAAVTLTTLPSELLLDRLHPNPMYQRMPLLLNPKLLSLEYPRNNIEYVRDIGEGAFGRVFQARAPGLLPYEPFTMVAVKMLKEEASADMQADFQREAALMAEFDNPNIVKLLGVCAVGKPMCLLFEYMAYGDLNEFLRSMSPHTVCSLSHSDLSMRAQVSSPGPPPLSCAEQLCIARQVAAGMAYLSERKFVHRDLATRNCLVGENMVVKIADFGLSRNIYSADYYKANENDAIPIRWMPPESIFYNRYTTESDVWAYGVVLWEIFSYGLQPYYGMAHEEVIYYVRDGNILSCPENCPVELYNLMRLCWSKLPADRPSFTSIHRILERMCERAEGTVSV

NEK6(h) = biological target: T6, NEK6(h) (Homo sapiens, UniProt Q9HC98); assay: Kinase panel; type: biochemical
T6 construct: purchased Millipore KinaseProfiler
T6 sequence (Q9HC98 whole entry): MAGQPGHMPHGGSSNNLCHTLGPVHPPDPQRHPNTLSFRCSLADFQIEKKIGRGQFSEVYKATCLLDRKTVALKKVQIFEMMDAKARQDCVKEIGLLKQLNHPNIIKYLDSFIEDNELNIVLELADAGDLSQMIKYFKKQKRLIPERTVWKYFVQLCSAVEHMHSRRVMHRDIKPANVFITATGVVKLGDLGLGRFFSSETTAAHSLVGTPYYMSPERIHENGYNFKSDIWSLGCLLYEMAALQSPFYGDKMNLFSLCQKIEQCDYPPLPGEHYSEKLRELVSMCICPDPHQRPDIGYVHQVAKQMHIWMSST

PDGFRα(V561D)(h) = biological target: T7, PDGFRα(V561D)(h) (Homo sapiens, UniProt P16234, V561D); assay: Kinase panel; type: biochemical
T7 construct: purchased Millipore KinaseProfiler

PRK2(h) = biological target: T8, PRK2(h) (Homo sapiens, UniProt Q16513); assay: Kinase panel; type: biochemical
T8 construct: purchased Millipore KinaseProfiler

Ret(h) = biological target: T9, Ret(h) (Homo sapiens, UniProt P07949); assay: Kinase panel; type: biochemical
T9 construct: purchased Millipore KinaseProfiler
T9 sequence (P07949 29-1114): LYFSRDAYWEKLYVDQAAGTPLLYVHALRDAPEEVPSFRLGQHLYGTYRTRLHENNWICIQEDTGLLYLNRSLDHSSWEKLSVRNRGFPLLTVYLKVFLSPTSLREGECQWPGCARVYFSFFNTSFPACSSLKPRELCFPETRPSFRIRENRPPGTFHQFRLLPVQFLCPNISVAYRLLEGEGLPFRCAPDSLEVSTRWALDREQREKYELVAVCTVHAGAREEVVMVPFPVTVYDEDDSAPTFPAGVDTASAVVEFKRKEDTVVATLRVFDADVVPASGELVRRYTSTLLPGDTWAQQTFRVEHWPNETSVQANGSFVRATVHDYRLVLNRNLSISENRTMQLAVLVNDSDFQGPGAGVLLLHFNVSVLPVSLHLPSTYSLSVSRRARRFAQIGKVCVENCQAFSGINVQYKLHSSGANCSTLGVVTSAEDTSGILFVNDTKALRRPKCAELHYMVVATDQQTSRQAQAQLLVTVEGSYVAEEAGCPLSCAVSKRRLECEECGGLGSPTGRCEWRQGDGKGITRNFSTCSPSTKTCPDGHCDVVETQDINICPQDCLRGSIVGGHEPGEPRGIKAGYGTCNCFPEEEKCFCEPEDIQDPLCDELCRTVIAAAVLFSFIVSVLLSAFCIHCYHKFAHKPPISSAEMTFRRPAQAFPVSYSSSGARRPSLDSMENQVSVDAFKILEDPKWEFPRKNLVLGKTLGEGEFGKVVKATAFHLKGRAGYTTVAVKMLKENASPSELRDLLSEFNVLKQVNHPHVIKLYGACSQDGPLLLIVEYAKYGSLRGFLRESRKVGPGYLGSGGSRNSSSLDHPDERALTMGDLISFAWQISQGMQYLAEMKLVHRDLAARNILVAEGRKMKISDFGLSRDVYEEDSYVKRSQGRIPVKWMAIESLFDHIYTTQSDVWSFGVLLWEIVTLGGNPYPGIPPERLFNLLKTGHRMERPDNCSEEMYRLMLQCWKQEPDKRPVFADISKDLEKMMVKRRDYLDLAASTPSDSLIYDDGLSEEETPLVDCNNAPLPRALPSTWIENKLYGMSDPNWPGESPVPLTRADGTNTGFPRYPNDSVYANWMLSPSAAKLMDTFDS

Tie2(h) = biological target: T10, Tie2(h) (Homo sapiens, UniProt Q02763); assay: Kinase panel; type: biochemical
T10 construct: purchased Millipore KinaseProfiler
T10 sequence (Q02763 23-1124): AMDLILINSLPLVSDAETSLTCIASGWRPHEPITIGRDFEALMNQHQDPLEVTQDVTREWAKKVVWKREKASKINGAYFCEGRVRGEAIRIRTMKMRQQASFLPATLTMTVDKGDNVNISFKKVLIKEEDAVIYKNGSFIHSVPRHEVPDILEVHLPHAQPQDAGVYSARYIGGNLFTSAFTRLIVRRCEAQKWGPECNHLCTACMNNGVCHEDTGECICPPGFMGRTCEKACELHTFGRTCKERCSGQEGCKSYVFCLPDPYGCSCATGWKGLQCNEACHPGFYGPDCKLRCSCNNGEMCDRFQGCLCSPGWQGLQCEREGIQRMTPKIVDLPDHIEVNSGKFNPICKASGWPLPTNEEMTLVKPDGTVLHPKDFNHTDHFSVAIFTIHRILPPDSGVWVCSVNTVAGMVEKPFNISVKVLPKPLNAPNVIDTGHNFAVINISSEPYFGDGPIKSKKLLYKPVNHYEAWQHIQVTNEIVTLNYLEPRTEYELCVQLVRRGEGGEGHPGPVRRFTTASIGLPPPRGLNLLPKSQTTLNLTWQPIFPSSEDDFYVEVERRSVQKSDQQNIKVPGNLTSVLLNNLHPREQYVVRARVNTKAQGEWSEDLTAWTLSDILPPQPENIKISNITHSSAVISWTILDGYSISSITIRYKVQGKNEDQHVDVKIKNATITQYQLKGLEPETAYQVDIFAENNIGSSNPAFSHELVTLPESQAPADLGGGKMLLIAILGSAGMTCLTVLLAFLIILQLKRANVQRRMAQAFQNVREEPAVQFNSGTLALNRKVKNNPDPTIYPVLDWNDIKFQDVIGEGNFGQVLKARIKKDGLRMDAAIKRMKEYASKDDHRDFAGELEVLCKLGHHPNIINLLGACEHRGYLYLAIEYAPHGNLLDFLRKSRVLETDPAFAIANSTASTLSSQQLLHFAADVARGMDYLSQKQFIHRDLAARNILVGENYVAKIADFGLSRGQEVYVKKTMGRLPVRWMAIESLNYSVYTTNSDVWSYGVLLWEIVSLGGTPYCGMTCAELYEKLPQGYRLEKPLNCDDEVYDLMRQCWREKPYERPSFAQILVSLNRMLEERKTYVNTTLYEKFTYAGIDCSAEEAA

PKCμ = PKCμ (Homo sapiens, UniProt Q15139); assay: Kinase IC50 assay; type: biochemical
ROCK = assay: Kinase IC50 assay; type: biochemical
[1] = tested on: phospho-PRAS40 in BT474 tumor xenografts; assay: In vivo dose response pharmacodynamic assay (phospho-PRAS40 ELISA); design: species or system mouse; conditions: 2 h post last dose
Method: Protein lysates were analyzed by phospho-PRAS40 ELISA according to the methods described above. Concentration of the test compounds in the tissue and blood was analyzed using protein precipitation with acetonitrile, followed by HPLC/MS/MS analysis using positive ion atmospheric pressure chemical ionization or Turbo ionspray ionization (API 4000 or API 5000, Applied Biosystems). The lower level of detection of compound was 10 ng/mL and the assays were linear over a 100- to a 1000-fold drug concentration range.

T1 sequence (P00520 27-1123 limits assumed): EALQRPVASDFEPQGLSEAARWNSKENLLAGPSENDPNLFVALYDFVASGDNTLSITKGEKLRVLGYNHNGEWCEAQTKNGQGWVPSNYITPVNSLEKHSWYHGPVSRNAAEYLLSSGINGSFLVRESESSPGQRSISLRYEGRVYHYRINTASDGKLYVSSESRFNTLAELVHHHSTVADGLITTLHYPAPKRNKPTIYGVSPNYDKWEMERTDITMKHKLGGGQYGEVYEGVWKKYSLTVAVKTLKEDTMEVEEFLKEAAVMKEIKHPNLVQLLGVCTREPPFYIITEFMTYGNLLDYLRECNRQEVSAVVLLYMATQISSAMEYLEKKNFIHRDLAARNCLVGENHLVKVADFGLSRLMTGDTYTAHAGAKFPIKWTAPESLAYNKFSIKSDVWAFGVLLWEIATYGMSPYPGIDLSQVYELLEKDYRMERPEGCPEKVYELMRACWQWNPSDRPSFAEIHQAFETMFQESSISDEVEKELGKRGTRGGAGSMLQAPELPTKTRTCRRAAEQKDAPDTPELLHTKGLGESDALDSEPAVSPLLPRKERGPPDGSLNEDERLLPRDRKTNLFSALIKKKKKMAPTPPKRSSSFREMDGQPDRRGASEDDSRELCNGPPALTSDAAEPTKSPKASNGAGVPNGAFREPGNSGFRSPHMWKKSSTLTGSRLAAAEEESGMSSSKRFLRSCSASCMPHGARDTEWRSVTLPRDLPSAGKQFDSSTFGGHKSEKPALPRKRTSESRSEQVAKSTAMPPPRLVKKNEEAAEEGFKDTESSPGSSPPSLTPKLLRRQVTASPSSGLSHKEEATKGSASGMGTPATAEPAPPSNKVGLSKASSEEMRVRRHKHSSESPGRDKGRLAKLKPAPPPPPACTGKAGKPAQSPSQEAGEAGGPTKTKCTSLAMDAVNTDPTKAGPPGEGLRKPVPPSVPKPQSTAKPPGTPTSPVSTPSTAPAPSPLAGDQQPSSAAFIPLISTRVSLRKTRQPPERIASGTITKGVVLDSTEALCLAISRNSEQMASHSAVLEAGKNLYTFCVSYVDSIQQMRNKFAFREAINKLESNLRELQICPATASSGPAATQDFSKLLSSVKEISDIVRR

**Q.** Which inhibition at 0.5 µM (Abl(m)) does the source give for `Cn1ncc(Cl)c1-c1cc(C(=O)N[C@H](CN)Cc2cccc(F)c2)sc1Cl` [GSK2110183] here?
**A.** 8%

**Q.** And the inhibition at 10 µM (Abl(m))?
**A.** -5%

**Q.** What about the inhibition at 0.5 µM (Arg(m)) of the same molecule?
**A.** -1%

**Q.** What about the inhibition at 10 µM (Arg(m)) of the same molecule?
**A.** 1%

**Q.** And the inhibition at 0.5 µM (ErbB4(h))?
**A.** -4%

**Q.** What about the inhibition at 10 µM (ErbB4(h)) of the same molecule?
**A.** 4%

**Q.** What about the inhibition at 0.5 µM (Flt3(D835Y)(h)) of the same molecule?
**A.** 12%

**Q.** What about the inhibition at 10 µM (Flt3(D835Y)(h)) of the same molecule?
**A.** 71%

**Q.** What about the inhibition at 0.5 µM (MuSK(h)) of the same molecule?
**A.** -25%

**Q.** What about the inhibition at 10 µM (MuSK(h)) of the same molecule?
**A.** -20%

**Q.** What about the inhibition at 0.5 µM (NEK6(h)) of the same molecule?
**A.** -25%

**Q.** And the inhibition at 10 µM (NEK6(h))?
**A.** -11%

**Q.** And the inhibition at 0.5 µM (PDGFRα(V561D)(h))?
**A.** 2%

**Q.** What about the inhibition at 10 µM (PDGFRα(V561D)(h)) of the same molecule?
**A.** 26%

**Q.** What about the inhibition at 0.5 µM (PRK2(h)) of the same molecule?
**A.** 71%

**Q.** What about the inhibition at 10 µM (PRK2(h)) of the same molecule?
**A.** 99%

**Q.** And the inhibition at 0.5 µM (Ret(h))?
**A.** 4%

**Q.** And the inhibition at 10 µM (Ret(h))?
**A.** 14%

**Q.** What about the inhibition at 0.5 µM (Tie2(h)) of the same molecule?
**A.** -56%

**Q.** And the inhibition at 10 µM (Tie2(h))?
**A.** -10%

**Q.** And the IC50 (PKCμ)?
**A.** > 1000 nM

**Q.** What about the IC50 (ROCK) of the same molecule?
**A.** 100 nM

**Q.** What about the “decrease of PRAS40 phosphorylation in tumors” value (“decrease” below) ([1]; 10 mg/kg QDx7 oral) of the same molecule?
**A.** 8%

**Q.** What about the “decrease” value ([1]; 30 mg/kg QDx7 oral) of the same molecule?
**A.** 37%

**Q.** And the “decrease” value ([1]; 100 mg/kg QDx7 oral)?
**A.** 61%

**Q.** How did the inhibition at 0.5 µM (Abl(m); 0.5 µM, read-out: % Inhibition) turn out when `Cn1ncc(Cl)c1-c1cc(C(=O)N[C@H](CN)Cc2ccc(F)c(F)c2)oc1Cl` [GSK2141795] was run?
**A.** 1%

**Q.** What about the inhibition at 10 µM (Abl(m); 10 µM, read-out: % Inhibition) of the same molecule?
**A.** 7%

**Q.** What about the inhibition at 0.5 µM (Arg(m); 0.5 µM, read-out: % Inhibition) of the same molecule?
**A.** -1%

**Q.** What about the inhibition at 10 µM (Arg(m); 10 µM, read-out: % Inhibition) of the same molecule?
**A.** 7%

**Q.** And the inhibition at 0.5 µM (ErbB4(h); 0.5 µM, read-out: % Inhibition)?
**A.** -11%

**Q.** What about the inhibition at 10 µM (ErbB4(h); 10 µM, read-out: % Inhibition) of the same molecule?
**A.** -5%

**Q.** And the inhibition at 0.5 µM (Flt3(D835Y)(h); 0.5 µM, read-out: % Inhibition)?
**A.** 6%

**Q.** What about the inhibition at 10 µM (Flt3(D835Y)(h); 10 µM, read-out: % Inhibition) of the same molecule?
**A.** 81%

**Q.** What about the inhibition at 0.5 µM (MuSK(h); 0.5 µM, read-out: % Inhibition) of the same molecule?
**A.** -11%

**Q.** And the inhibition at 10 µM (MuSK(h); 10 µM, read-out: % Inhibition)?
**A.** -2%

**Q.** And the inhibition at 0.5 µM (NEK6(h); 0.5 µM, read-out: % Inhibition)?
**A.** -17%

**Q.** And the inhibition at 10 µM (NEK6(h); 10 µM, read-out: % Inhibition)?
**A.** -22%

**Q.** And the inhibition at 0.5 µM (PDGFRα(V561D)(h); 0.5 µM, read-out: % Inhibition)?
**A.** -5%

**Q.** What about the inhibition at 10 µM (PDGFRα(V561D)(h); 10 µM, read-out: % Inhibition) of the same molecule?
**A.** 14%

**Q.** And the inhibition at 0.5 µM (PRK2(h); 0.5 µM, read-out: % Inhibition)?
**A.** 81%

**Q.** And the inhibition at 10 µM (PRK2(h); 10 µM, read-out: % Inhibition)?
**A.** 96%

**Q.** What about the inhibition at 0.5 µM (Ret(h); 0.5 µM, read-out: % Inhibition) of the same molecule?
**A.** -19%

**Q.** What about the inhibition at 10 µM (Ret(h); 10 µM, read-out: % Inhibition) of the same molecule?
**A.** 31%

**Q.** What about the inhibition at 0.5 µM (Tie2(h); 0.5 µM, read-out: % Inhibition) of the same molecule?
**A.** -6%

**Q.** And the inhibition at 10 µM (Tie2(h); 10 µM, read-out: % Inhibition)?
**A.** 9%

**Q.** And the IC50 (PKCμ)?
**A.** 690 nM

**Q.** And the IC50 (ROCK)?
**A.** 126 nM

**Q.** What about the “decrease” value ([1]; 30 mg/kg QDx7 oral) of the same molecule?
**A.** 62%
